“And” between values parts separate entries of the source, which are not always exact repeats. Equal values may be shown once. Inconclusive results and toxic doses are left out.

In this experiment the test system is BDF1 mice, P388 leukemia ip, median survival T/C. Kind of experiment: NCI In Vivo Anticancer Drug Screen. Data for tumor model P388 Leukemia (intraperitoneal) in B6D2F1 (BDF1) mice. The settings on record: endpoint: median survival time, higher = longer survival. The essentials: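 Steps: implant the tumour, treat one group with compound and another with vehicle, record survival, then divide treated by control.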

Where [1] appears, read: dose: 100.0 mg/kg/injection, schedule: Q04DX003 (ip), vehicle: saline.
[2] abbreviates: dose: 200.0 mg/kg/injection, schedule: Q04DX003 (ip), vehicle: saline.
[3] abbreviates: dose: 100.0 mg/kg/injection, schedule: Q01DX009 (ip), vehicle: saline with Tween-80.
The mark [4] stands for this setting: dose: 200.0 mg/kg/injection, schedule: Q01DX009 (ip), vehicle: saline with Tween-80.
Setting [5] is: dose: 400.0 mg/kg/injection, schedule: Q01DX009 (ip), vehicle: saline with Tween-80.
[6] abbreviates: dose: 25.0 mg/kg/injection, schedule: Q01DX009 (ip), vehicle: Klucel (hydroxypropylcellulose) (HPC).
The mark [7] stands for this setting: dose: 50.0 mg/kg/injection, schedule: Q01DX009 (ip), vehicle: saline with Tween-80.

Take `CC(C)(C)OC(=O)CNC(=O)CCl`: the T/C reads like this: (dose: 50.0 mg/kg/injection, schedule: Q04DX003 (ip), vehicle: saline) 100 % of control; under setting [1], 100 % of control; under setting [2], 108 % of control.

Consider `CCCc1cc(CCC)nc(NNc2nc(CCC)cc(CCC)n2)n1`, for which the T/C under setting [3] was 86 % of control, the T/C under setting [4] is 100 % of control and the T/C under setting [5] was 100 % of control.

In the case of `O=C1C=C(O/C=C/C(C(F)(F)F)C(F)(F)F)C(=O)c2ccccc21`, the T/C under setting [3] is 109 % of control.

Turning to `COc1ccc(C(=O)CC(c2ccc(OC)c(OC)c2)c2c(O)c3ccccc3oc2=O)cc1OC` (centres undefined), the T/C was 101 % of control (dose: 12.5 mg/kg/injection, schedule: Q01DX009 (ip), vehicle: saline); 111 % of control (dose: 25.0 mg/kg/injection, schedule: Q01DX009 (ip), vehicle: saline); 101 % of control (dose: 50.0 mg/kg/injection, schedule: Q01DX009 (ip), vehicle: saline); 109 % of control (dose: 100.0 mg/kg/injection, schedule: Q01DX009 (ip), vehicle: saline); 93 % of control (dose: 200.0 mg/kg/injection, schedule: Q01DX009 (ip), vehicle: saline).

In the case of `C=C(Cl)CSCC`, the T/C reads like this: (dose: 6.25 mg/kg/injection, schedule: Q04DX003 (ip), vehicle: alcohol) 100 % of control; (dose: 12.5 mg/kg/injection, schedule: Q01DX009 (ip), vehicle: acetone) 118 % of control; (dose: 12.5 mg/kg/injection, schedule: Q04DX003 (ip), vehicle: alcohol) 105 % of control; (dose: 25.0 mg/kg/injection, schedule: Q01DX009 (ip), vehicle: acetone) 113 % of control; (dose: 25.0 mg/kg/injection, schedule: Q04DX003 (ip), vehicle: alcohol) 100 % of control; (dose: 45.0 mg/kg/injection, schedule: Q01DX001 (ip), vehicle: saline) 109 % of control. The T/C reads like this: (dose: 90.0 mg/kg/injection, schedule: Q01DX001 (ip), vehicle: saline) 109 % of control; (dose: 120.0 mg/kg/injection, schedule: Q04DX003 (ip), vehicle: saline) 109 % of control; (dose: 180.0 mg/kg/injection, schedule: Q04DX003 (ip), vehicle: saline) 95 % of control; (dose: 270.0 mg/kg/injection, schedule: Q04DX003 (ip), vehicle: saline) 86 % of control.

Regarding `CNC(=N)c1ccc(NC(=N)c2ccc(NC(=O)Nc3ccc(NC(=O)Nc4ccc(C(=N)Nc5ccc(C(=N)NC)cc5)cc4)cc3)cc2)cc1`, the T/C (dose: 4.0 mg/kg/injection, schedule: Q04DX003 (ip), vehicle: Klucel (hydroxypropylcellulose) (HPC)) is 154 % of control; the T/C (dose: 6.0 mg/kg/injection, schedule: Q04DX003 (ip), vehicle: Klucel (hydroxypropylcellulose) (HPC)) was 150 % of control and 154 % of control; the T/C (dose: 7.0 mg/kg/injection, schedule: Q01DX009 (ip), vehicle: Klucel (hydroxypropylcellulose) (HPC)) is 161 % of control; the T/C (dose: 9.0 mg/kg/injection, schedule: Q04DX003 (ip), vehicle: Klucel (hydroxypropylcellulose) (HPC)) is 159 % of control; the T/C (dose: 11.0 mg/kg/injection, schedule: Q01DX009 (ip), vehicle: Klucel (hydroxypropylcellulose) (HPC)) was 150 % of control; the T/C (dose: 13.0 mg/kg/injection, schedule: Q04DX003 (ip), vehicle: Klucel (hydroxypropylcellulose) (HPC)) was 176 % of control and 177 % of control. Besides, the T/C (dose: 16.5 mg/kg/injection, schedule: Q01DX009 (ip), vehicle: Klucel (hydroxypropylcellulose) (HPC)) was 192 % of control; the T/C (dose: 20.0 mg/kg/injection, schedule: Q04DX003 (ip), vehicle: Klucel (hydroxypropylcellulose) (HPC)) is 153 % of control; the T/C under setting [6] is 231 % of control; the T/C (dose: 30.0 mg/kg/injection, schedule: Q04DX003 (ip), vehicle: Klucel (hydroxypropylcellulose) (HPC)) is 176 % of control; the T/C (dose: 44.0 mg/kg/injection, schedule: Q04DX003 (ip), vehicle: Klucel (hydroxypropylcellulose) (HPC)) was 160 % of control and 207 % of control; the T/C (dose: 67.0 mg/kg/injection, schedule: Q04DX003 (ip), vehicle: Klucel (hydroxypropylcellulose) (HPC)) is 173 % of control and 207 % of control. Besides, the T/C is, setting by setting: (dose: 100.0 mg/kg/injection, schedule: Q04DX003 (ip), vehicle: Klucel (hydroxypropylcellulose) (HPC)) 230 % of control (2×) and 156 % of control; (dose: 150.0 mg/kg/injection, schedule: Q04DX003 (ip), vehicle: Klucel (hydroxypropylcellulose) (HPC)) 160 % of control and 211 % of control.

Turning to `NC(=O)c1ccc(-c2c3ccccc3cc3c2ccc2ccccc23)cc1`, the T/C reads like this: under setting [7], 95 % of control; under setting [3], 89 % of control; under setting [4], 89 % of control; under setting [5], 106 % of control.

Consider `FC1(F)C(F)(F)C(Cl)(Cl)C1(Cl)Cl`, for which the T/C is 100 % of control (dose: 75.0 mg/kg/injection, schedule: Q01DX001 (ip), vehicle: saline); 109 % of control (dose: 150.0 mg/kg/injection, schedule: Q01DX001 (ip), vehicle: saline); 104 % of control (dose: 300.0 mg/kg/injection, schedule: Q01DX001 (ip), vehicle: saline).

Regarding `CCOC(=O)/C(=C\c1ccccc1)O/C(=C/c1ccccc1)C(=O)OCC`, the T/C runs as follows: (dose: 100.0 mg/kg/injection, schedule: Q04DX002 (ip), vehicle: saline with Tween-80) 89 % of control; (dose: 400.0 mg/kg/injection, schedule: Q04DX002 (ip), vehicle: saline with Tween-80) 93 % of control.

In the case of `CCCCCCCCCCCCCCCc1ccc(C(=O)C[n+]2ccccc2)cc1`, the T/C reads like this: (dose: 3.13 mg/kg/injection, schedule: Q01DX009 (ip), vehicle: saline with Tween-80) 100 % of control; (dose: 6.25 mg/kg/injection, schedule: Q01DX009 (ip), vehicle: saline with Tween-80) 104 % of control; (dose: 12.5 mg/kg/injection, schedule: Q01DX009 (ip), vehicle: saline with Tween-80) 118 % of control; (dose: 16.5 mg/kg/injection, schedule: Q04DX003 (ip), vehicle: saline with Tween-80) 122 % of control.

In the case of `O/N=C\c1ccccc1`, the T/C is, setting by setting: under setting [6], 108 % of control; (dose: 50.0 mg/kg/injection, schedule: Q01DX009 (ip), vehicle: Klucel (hydroxypropylcellulose) (HPC)) 95 % of control; (dose: 75.0 mg/kg/injection, schedule: Q04DX003 (ip), vehicle: saline with Tween-80) 110 % of control; (dose: 100.0 mg/kg/injection, schedule: Q01DX009 (ip), vehicle: Klucel (hydroxypropylcellulose) (HPC)) 91 % of control; (dose: 150.0 mg/kg/injection, schedule: Q04DX003 (ip), vehicle: saline with Tween-80) 105 % of control.

As for `O=C(NO)Nc1nc(Cl)c(Cl)nc1Cl`, the T/C runs as follows: (dose: 3.12 mg/kg/injection, schedule: Q01DX009 (ip), vehicle: water) 104 % of control; (dose: 6.25 mg/kg/injection, schedule: Q01DX009 (ip), vehicle: water) 110 % of control; (dose: 6.25 mg/kg/injection, schedule: Q04DX003 (ip), vehicle: water) 98 % of control and 101 % of control; (dose: 12.5 mg/kg/injection, schedule: Q01DX009 (ip), vehicle: water) 110 % of control; (dose: 12.5 mg/kg/injection, schedule: Q04DX003 (ip), vehicle: water) 100 % of control and 113 % of control; (dose: 25.0 mg/kg/injection, schedule: Q01DX009 (ip), vehicle: water) 118 % of control. In addition, the T/C is, setting by setting: (dose: 25.0 mg/kg/injection, schedule: Q04DX003 (ip), vehicle: water) 98 % of control and 118 % of control; (dose: 50.0 mg/kg/injection, schedule: Q04DX003 (ip), vehicle: water) 100 % of control and 109 % of control; (dose: 100.0 mg/kg/injection, schedule: Q01DX009 (ip), vehicle: water) 118 % of control; (dose: 100.0 mg/kg/injection, schedule: Q04DX003 (ip), vehicle: water) 109 % of control.

On to `CC1(C)OC(COCCOCCO)C(COCCOCCO)O1` (centres undefined), for which the T/C under setting [1] is 96 % of control; the T/C under setting [2] is 103 % of control; the T/C (dose: 400.0 mg/kg/injection, schedule: Q04DX003 (ip), vehicle: saline) was 96 % of control.

For `CN1CCC2(CC1)c1ccccc1-c1ccccc12`, the T/C under setting [7] was 109 % of control and the T/C under setting [3] was 100 % of control.

Values taken from PubChem BioAssay AID328 (DTP/NCI, 2004).
